From US20260174762A1, “OLCEGEPANT FOR TREATING SEPSIS” (Boehringer Ingelheim International GmbH, priority 2022, published 2026)

Assays:
[1] = system: CLP-induced polymicrobial sepsis; test: Chronic model of CLP: survival rate; format: in vivo, mouse; conditions: 30 mg/kg s.c. 2 h after CLP induction and once daily from day 1 to day 6; 10 mice per group
Protocol: Two models were performed: • A cute model of CLP lasting 24 h to measure vascular hyper-permeability in lung, liver, kidney and heart tissue. The vascular hyper-permeability was followed by the extravasation of Evans blue injected intravenously and diffused and accumulated into the tissue. The vascular hyper-permeability was expressed as μg of Evans blue in 100 mg of dry tissue. • Chronic model of CLP lasting 8 days. CLP is performed on day 0 and the survival rate is followed for 8 consecutive days
On day 0, mice were anesthetized with ketamine (80 mg kg^−1, i.p.) and xylazine (10 mg kg^−1, i.p.). A 1-1.5 cm abdominal midline incision was made, and the caecum was located and tightly ligated at half the distance between distal pole and the base of the caecum with 4-0 silk suture (mild grade). The caecum was punctured through-and-through once with a 21-gauge needle after medium ligation. A small amount of stool was extruded to ensure that the wounds were patent. Then the cecum was replaced in its original position within the abdomen, which was closed with sutures in layers. For negative control animals, a sham surgery was performed: sham-operated animals underwent identical laparotomy but without cecal ligation or puncture. The animals were resuscitated immediately after surgery with 1 mL subcutaneous normal saline and returned to their cages. […]

mouse CLP model = conditions: WO 2018/154015, cited from earlier work
pig sepsis model = conditions: intravenous bolus injection; cited from earlier work

NCCCC[C@H](NC(=O)[C@@H](Cc1cc(Br)c(O)c(Br)c1)NC(=O)N1CCC(N2Cc3ccccc3NC2=O)CC1)C(=O)N1CCN(c2ccncc2)CC1 [olcegepant]
survival rate at day 8 [1]: 20% | mice rescued at day 4 (mouse CLP model; 100 mg/kg subcutaneous twice daily, mouse CLP model): 20% | mice rescued (mouse CLP model; subcutaneous bolus injection, mouse sepsis model): 2 out of 10 | survival improvement (pig sepsis model): did not show any survival improvement
